Assay results from a melting point compilation (Tetko et al.; mined from patent text by program, amines drawn as free bases though some values may be those of a salt).

melting point | SMILES
114 °C | OC1(c2ccc(Cl)cc2)CCN(CCNC(c2ccccc2)c2ccccc2)CC1
168 to 170 °C | N=C(Nc1ccc(Cl)cc1)Nc1ncccc1OCc1c(F)cccc1Cl
174 to 176 °C | COc1ccc(C(NCCc2ccccc2)c2cccc(Nc3c(N)c(=O)c3=O)c2)cc1 (stereo not given)
140 to 142 °C | Cn1cc2c([C@@H]3C[C@H]3CNC(=O)c3ccc(Br)cc3)cccc2n1
192 to 193 °C | O=S(=O)(NC1CCCCC1)c1ccc(Cn2cnc3ccccc32)cc1
51 to 53 °C | CC1(C)CC=C(S(=O)(=O)c2ccccc2)CC1
246 to 248 °C | Nc1ccc(Cn2c(=O)c3c(-c4noc(C5CC5)n4)ncn3c3ccccc32)cc1
141 to 145 °C | CC1(C)CON(Cc2ccc(N3C(=O)c4ccccc4C3=O)cc2Cl)C1=O
230 to 232 °C | Cc1ccc(-c2cc(N3CCC(C(N)=O)CC3)c3ccccc3n2)cc1
189 to 190 °C | CC(CNC(=O)c1cccc(Oc2ccccc2)c1)N(O)C(N)=O (stereo not given)
124 to 125 °C | c1ccc(COc2ccc3c(ccn3Cc3ccncc3)c2)cc1
49 to 52 °C | COC(=O)NCc1cccc(-c2ccccc2)c1
229 to 230 °C | COc1ccc(Cl)cc1C(=N)Nc1ccc(F)c(NC(=O)/C=C/c2ccccc2Cl)c1
138 to 141 °C | CNC(=O)c1ccccc1CCc1ccc(Br)cc1
180 to 182 °C | Cc1ccc(S(=O)(=O)N(C)c2ccc(Cl)cc2C(N)=S)cc1
131 to 139 °C | CC(=O)Nc1cccc(Nc2ncc3ccc(-c4cccn4CCC#N)n3n2)c1

Continued, compound first:

SMILES | melting point
CC(C)C[C@@H](OC(=O)c1cc(Cl)ccn1)C(=O)O | 120 to 122 °C
Cc1ccc(-c2cc(C(=O)O)nn2Cc2ccc(Cl)c(Cl)c2)cc1 | 172 °C
CN(C)C1CN(c2cc3c(cc2F)c(=O)c(C(=O)O)cn3C2CC2)C1 | 255 to 261 °C
CCC(N)C(=O)Nc1c(C)cccc1C (stereo not given) | 48 to 49 °C
CN(N)c1ncnc2c1cnn2C | 213 to 215 °C
COc1ccc(-c2cccc(-c3nc(C(C)C)[nH]c3-c3cccc(C)n3)c2)cc1 | 75 to 77 °C
CN(SC(C)(C)C(=O)c1ccccc1)C(=O)ON=C1SC(C)(C)C(=O)N1C | 98 to 100 °C
N#Cc1cccc(CSCCNC(=O)c2c(Cl)cccc2Cl)c1 | 123 to 125 °C
CC(C(N)=NO)N(CCN(C(C)C(N)=NO)C(C)C(N)=NO)C(C)C(N)=NO (stereo not given) | 191 to 192 °C
CCn1cc(C(=O)O)c(=O)c2cc(F)c(N3CCN(S(=O)(=O)c4ccc(OC)cc4)CC3)c(F)c21 | 252 to 253 °C
O=C1CCc2c1cccc2-c1ccc(C(F)(F)F)cc1 | 75 to 78 °C
OCc1cc(Cl)c(N=C2NCCN2)c(Cl)c1 | 208 to 210 °C
CCOC(=O)C1=C(C)NC(N=CCN(C)C)=C(C(=O)OCC)C1c1ccccc1 (stereo not given) | 126 °C
CCC(=O)c1ccc(OC)c(OC(=O)CCl)c1 | 77 to 79.5 °C
CCn1c(=O)c2c(nc(/C=C/c3cccc(O)c3)n2C)n(CC)c1=O | 250 to 251 °C
C=CCOc1ccc(C(=O)C=Cc2cc(OC)ccc2OC)cc1 | 86 to 87 °C
COC(=O)C(C)(C)CCCOc1cc(C)c([N+](=O)[O-])cc1C | 73 to 75 °C

SMILES | melting point
O=C(/C=C/c1ccccc1F)N1CCN(C(=O)c2cc(C(F)(F)F)cc(C(F)(F)F)c2)[C@H](Cc2c[nH]c3ccccc23)C1 | 110 to 114 °C
COC(=O)c1cccc(C(=O)NC(Nc2c(Nc3cccnc3)c(=O)c2=O)C(C)(C)C)c1 (stereo not given) | 228 to 229 °C
CN(C)C(=O)Nc1cc(Cl)ccc1O | 164 °C
CCCN(CCC)C1Cc2c[nH]c3ccc(C(=O)C(C)(C)C)c(c23)C1 (stereo not given) | 92 °C
CC(=O)N[C@@H](C)COC1CCN(c2nc3ccc(OCC4CC4)cc3s2)CC1 | 121 to 122 °C
COc1cc(Nc2c(C#N)cnc3cc(OCC4CCN(C)CC4)ccc23)c(Cl)cc1Cl | 191 to 193 °C
CC(OC(C)c1ccc(-c2ccc(Cl)cc2)cc1)C(=O)O (stereo not given) | 144 to 146 °C
CCCc1nn(C)c2c(=O)[nH]c(-c3cc(-n4ccnc4)ccc3OCC)nc12 | 193 to 194 °C
O=C1c2c(Br)ccc(Br)c2C(=O)N1CC(F)(F)C(F)(F)C(F)(F)F | 165 °C
CC1(COC(=O)c2ccccc2)COC(CBr)(c2ccc(Cl)cc2Cl)OC1 (stereo not given) | 139 to 142 °C
O=C1NN=C(c2cccc(Br)c2)CC1O (stereo not given) | 158 to 161 °C
C=CCOC(=O)c1ccc(NC(=O)c2ccc(OC)c(C34CC5CC(CC(C5)C3)C4)c2)cc1 | 191 to 192 °C
CCCN(CCC)C(=O)n1cnc(S(=O)C(C)C)n1 (stereo not given) | 15 to 20 °C
C[C@@H]([C@@H](CC1CCC(c2ccccc2)CC1)C(=O)N[C@H](C(=O)Nc1nccs1)C(C)(C)C)N(O)C=O (stereo not given in full) | 213 to 214 °C
CS(=O)(=O)N[C@@H]1CCCC[C@H]1OCC(=O)O (relative stereo) | 119 to 121 °C
CC(C(=O)N(C)C)n1ccc(-c2cccc([N+](=O)[O-])c2)n1 (stereo not given) | 117 to 119 °C
CC(C)(C)OC(=O)CN(C(=O)CNC(=O)Nc1cccc(CC(=O)O)c1)c1ccccc1C(=O)c1ccccc1 | 96 to 98 °C
